The numbers were not newly measured in paper PMC9658545, “From Nature to Synthetic Compounds: Novel 1(N),2,3 Trisubstituted-5-oxopyrrolidines Targeting Multiple Myeloma Cells” (International Journal of Molecular Sciences, 2022), which cites them from elsewhere.

In brackets after ≈: the same amount, converted by molar mass.

Data set [1] relates to human multiple myeloma RPMI 8226 cells. Details: method as in PMID 31323932. Particulars: at 24 h; cited from earlier work.
In data set [2] the test system is proteasome. Set-up: method as in PMID 31323932. The settings on record: cited from earlier work.
On the set-up of data set [3]: method as in PMID 31323932. The settings on record: cited from earlier work.
On the set-up of data set [4]: method as in PMID 31323932. Particulars: cited from earlier work. The source holds these as a separate data set.

Consider `COC(=O)C1OC(=O)CC1(O)C(=O)OC` (stereo not shown) [Hib-ester], for which the “IC50 (antiproliferative properties)” value in data set [1] was 450 µg/mL (≈ 2060 µM). The proteasome inhibition entry in data set [2] is recorded as “inhibit proteasome”. The neurotoxic effects entry in data set [3] is on record as “without neurotoxic effects”. Also, in data set [4], the “effect on migration and cell invasion” value was “reduce migration and cell invasion”.
